We go through 21 compounds from ChEMBL document CHEMBL1125992, “Evaluation of bouvardin, deoxybouvardin, and RA-I - RA-VII partial structures: reassignment of the pharmacophore” (Bioorg Med Chem Lett, 1991).

Converted amounts (≈) assume the structure as drawn. Starred links: 1 amine or outer side, 2 acyl side, 3 side chain; linkers in the order of their positions; H or OH if unused. Non-standard residues stand in square brackets, D forms with d. Residues, ends and D or L forms follow the SMILES beside them. ξ: configuration not given here. X1 = CN(CCc1ccc(Oc2cccc(CCC(=O)[*:2])c2)cc1)[*:1]; NMeY = CN[C@@H](Cc1ccc(O)cc1)C(=O)O; ξA = CC(N)C(=O)O Bounds are passed on as bounds.

The subject of this assay is L1210. The assay can be described thus: In vitro cytotoxicity against L1210 (murine leukemia) cells. It is filed as functional, cell-based. To be noted: Mus musculus.
`COc1ccc(C[C@H]2C(=O)N[C@@H](C)C(=O)N(C)CC(=O)N(C)CC(=O)N[C@H](C)C(=O)N[C@@H](C)C(=O)N2C)cc1` gave an IC50 above 100 µg/mL.
Next, `COc1ccc2cc1Oc1ccc(cc1)CCC(=O)NCC2`: above 100 µg/mL; `COC(=O)[C@@H]1Cc2ccc(OC)c(c2)Oc2ccc(cc2)C[C@H](N(C)C(=O)OCc2ccccc2)C(=O)N1`: 0.05 µg/mL (≈ 0.0964 µM); `COc1ccc(C[C@H]2C(=O)N[C@@H](C)C(=O)N(C)Cc3ccccc3CC(=O)N[C@H](C)C(=O)N[C@@H](C)C(=O)N2C)cc1`: 25 µg/mL (≈ 44.2 µM).
For `O=C1CCc2ccc(cc2)Oc2cccc(c2)CCN1`, the 50% inhibitory concentration (IC50) is above 100 µg/mL.
Next, `COc1ccc(C[C@H]2C(=O)N[C@@H](C)C(=O)N(C)[C@@H](Cc3ccc(O)cc3)C(=O)N(C)[C@@H](Cc3ccc(O)cc3)C(=O)N[C@H](C)C(=O)N[C@@H](C)C(=O)N2C)cc1`: above 100 µg/mL; `COc1ccc(C[C@H]2C(=O)N[C@@H](C)C(=O)N(C)[C@H]3Cc4ccc(cc4)Oc4cc(ccc4OC)C[C@@H](C(=O)N[C@H](C)C(=O)N[C@@H](C)C(=O)N2C)N(C)C3=O)cc1`: 0.002 µg/mL (≈ 0.00259 µM); `COc1ccc(C[C@H]2C(=O)N[C@@H](C)C(=O)N(C)[C@H]3C(=O)N(C)[C@H]3C(=O)NC(C)C(=O)N[C@@H](C)C(=O)N2C)cc1` (stereo partly specified): 50 µg/mL (≈ 91.8 µM).
Next, `COC(=O)[C@@H]1Cc2ccc(OC)c(c2)Oc2ccc(cc2)C[C@H](N(C)C(=O)OCc2ccccc2)C(=O)N1C`: 0.04 µg/mL (≈ 0.0751 µM).
Next, `COC(=O)[C@@H]1Cc2ccc(cc2)Oc2cc(ccc2OC(=O)c2ccccc2)C[C@H](N(C)C(=O)OCc2ccccc2)C(=O)NC(C)C(=O)N[C@@H](C)C(=O)N(C)[C@@H](Cc2ccc(OC)cc2)C(=O)N[C@@H](C)C(=O)N1C` (stereo partly specified): 10 µg/mL (≈ 9.74 µM); `COC(=O)[C@@H]1Cc2ccc(OC)c(c2)Oc2ccc(cc2)C[C@H](N(C)C(=O)OC(C)(C)C)C(=O)N1`: 0.06 µg/mL (≈ 0.124 µM); `COc1ccc(C[C@H]2C(=O)N[C@@H](C)C(=O)N(C)[C@H]3Cc4ccc(cc4)Oc4cc(ccc4OC)C[C@H](NC3=O)C(=O)N[C@H](C)C(=O)N[C@@H](C)C(=O)N2C)cc1`: 0.001 µg/mL (≈ 0.00132 µM).
In the case of `COc1ccc(C[C@H]2C(=O)N[C@@H](C)C(=O)N(C)CCc3ccc(cc3)Oc3cccc(c3)CCC(=O)NC(C)C(=O)N[C@@H](C)C(=O)N2C)cc1` (stereo partly specified) (cyclo(A[NMeY](Me)A[X1][ξA])), the IC50 was determined as 20 µg/mL (≈ 29.2 µM).
Next, `CN1CCc2cccc(c2)Oc2ccc(cc2)CCC1=O`: above 100 µg/mL; `COc1ccc2cc1Oc1ccc(cc1)CCC(=O)N(C)CC2`: above 100 µg/mL; `COC(=O)[C@@H]1Cc2ccc(OC)c(c2)Oc2ccc(cc2)C[C@H](N(C)C(=O)OC(C)(C)C)C(=O)N1C`: 0.03 µg/mL (≈ 0.0602 µM).
Next, `COC(=O)[C@@H]1Cc2ccc(OC)c(c2)Oc2ccc(cc2)CCC(=O)N1`: above 100 µg/mL; `COc1ccc(C[C@H]2C(=O)N[C@@H](C)C(=O)N[C@H](C)C(=O)N[C@@H](C)C(=O)N2C)cc1`: 20 µg/mL (≈ 49.4 µM); `CN[C@H]1Cc2ccc(O)c(c2)Oc2ccc(cc2)C[C@@H](C(=O)O)N(C)C(=O)[C@H](C)NC(=O)[C@H](Cc2ccc(OC)cc2)N(C)C(=O)[C@H](C)NC(=O)[C@@H](C)NC1=O`: 10 µg/mL (≈ 12.9 µM).
Next, `COC(=O)[C@@H]1Cc2ccc(O)c(c2)Oc2ccc(cc2)CCC(=O)N1`: above 100 µg/mL.
As to `COc1ccc(C[C@H]2C(=O)N[C@@H](C)C(=O)N(C)[C@H]3Cc4ccc(cc4)Oc4cc(ccc4O)C[C@@H](C(=O)N[C@H](C)C(=O)N[C@@H](C)C(=O)N2C)N(C)C3=O)cc1`, 0.002 µg/mL (≈ 0.00264 µM) corresponded to half-maximal inhibition (IC50).
